Legend:
[1] = system: acetylation of the histone H3K23 marker in U2OS cells; assay: Histone H3 Lysine 23 Acetylation Biomarker Assay; format: cell-based; conditions: Homo sapiens, 24 hours incubation, read-out: IC50, inhibition of histone H3K23 acetylation
Protocol: Compounds were tested for their ability to inhibit acetylation of the histone H3K23 marker in the following assay:
The cell line U2OS was seeded at a density of 9,000 cells per well in 96 well optical quality tissue culture plates in RPMI medium and 10% foetal bovine serum, and allowed to adhere for 24 hours under standard culture conditions (37 degree Celsius, 5% CO2). At the end of this period the medium was aspirated. […] After incubation for 24 hours, the cells were fixed with 3.7% formaldehyde in PBS for 20 minutes at room temperature, washed (5×5 minutes) with phosphate buffer saline containing 0.1% Tween 20 and blocked with Odyssey blocking buffer (LI-COR, Lincoln, Nebr.) containing 0.1% TritonX100. Anti-H3K23ac specific antibody (Abcam ab177275) in Odyssey blocking buffer containing 0.1% Tween 20 was added and incubated for 16 hours at 4 degree Celsius. After washing (as above), a secondary antibody labelled with Alexa647 dye (LifeTechnologies) and Hoechst 33342 (1 μg/mL, SigmaAldrich) were added for 1 hour incubation. Plates were washed as previously and read on a PerkinElmer Phenix high content imaging platform. Using a Columbus image analysis pipeline, individual nuclei were located by Hoechst 33342 stain and the acetylation level was calculated from the Alexa647-related intensity in the same area.

[2] = target: TIP60-KAT5 (Homo sapiens, UniProt Q92993); assay: Acetyltransferase biochemical assay (AlphaScreen), KAT5
TIP60-KAT5, sequence (Q92993 with tags, fused parts or gaps isoform Q92993-2): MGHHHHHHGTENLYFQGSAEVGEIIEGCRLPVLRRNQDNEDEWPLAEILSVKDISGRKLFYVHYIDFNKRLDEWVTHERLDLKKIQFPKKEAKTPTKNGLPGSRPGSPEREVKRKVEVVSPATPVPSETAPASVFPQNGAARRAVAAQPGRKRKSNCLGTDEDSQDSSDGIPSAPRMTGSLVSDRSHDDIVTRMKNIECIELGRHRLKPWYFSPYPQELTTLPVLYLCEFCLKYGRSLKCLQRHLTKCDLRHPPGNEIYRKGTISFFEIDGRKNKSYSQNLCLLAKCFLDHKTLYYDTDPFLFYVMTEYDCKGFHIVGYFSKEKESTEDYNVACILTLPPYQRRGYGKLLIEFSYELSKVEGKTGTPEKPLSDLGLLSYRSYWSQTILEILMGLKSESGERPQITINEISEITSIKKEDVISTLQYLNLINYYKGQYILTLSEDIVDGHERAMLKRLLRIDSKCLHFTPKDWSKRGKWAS

[3] = target: HBO-KAT7 (Homo sapiens, UniProt O95251); assay: Acetyltransferase biochemical assay (AlphaScreen), KAT7
HBO-KAT7, sequence (O95251 with tags, fused parts or gaps): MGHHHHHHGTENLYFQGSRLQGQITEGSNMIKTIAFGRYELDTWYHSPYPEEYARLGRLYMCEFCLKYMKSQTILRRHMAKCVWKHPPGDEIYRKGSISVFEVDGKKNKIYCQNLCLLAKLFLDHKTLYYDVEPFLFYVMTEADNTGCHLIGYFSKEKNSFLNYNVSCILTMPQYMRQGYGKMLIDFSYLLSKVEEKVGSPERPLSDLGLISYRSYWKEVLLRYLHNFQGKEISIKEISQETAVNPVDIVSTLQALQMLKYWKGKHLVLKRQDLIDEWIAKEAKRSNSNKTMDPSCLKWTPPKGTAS

[4] = target: MOZ-KAT6A (Homo sapiens, UniProt Q92794, A567V); assay: Acetyltransferase biochemical assay (AlphaScreen), KAT6A
MOZ-KAT6A, sequence (Q92794 with tags, fused parts or gaps A567V): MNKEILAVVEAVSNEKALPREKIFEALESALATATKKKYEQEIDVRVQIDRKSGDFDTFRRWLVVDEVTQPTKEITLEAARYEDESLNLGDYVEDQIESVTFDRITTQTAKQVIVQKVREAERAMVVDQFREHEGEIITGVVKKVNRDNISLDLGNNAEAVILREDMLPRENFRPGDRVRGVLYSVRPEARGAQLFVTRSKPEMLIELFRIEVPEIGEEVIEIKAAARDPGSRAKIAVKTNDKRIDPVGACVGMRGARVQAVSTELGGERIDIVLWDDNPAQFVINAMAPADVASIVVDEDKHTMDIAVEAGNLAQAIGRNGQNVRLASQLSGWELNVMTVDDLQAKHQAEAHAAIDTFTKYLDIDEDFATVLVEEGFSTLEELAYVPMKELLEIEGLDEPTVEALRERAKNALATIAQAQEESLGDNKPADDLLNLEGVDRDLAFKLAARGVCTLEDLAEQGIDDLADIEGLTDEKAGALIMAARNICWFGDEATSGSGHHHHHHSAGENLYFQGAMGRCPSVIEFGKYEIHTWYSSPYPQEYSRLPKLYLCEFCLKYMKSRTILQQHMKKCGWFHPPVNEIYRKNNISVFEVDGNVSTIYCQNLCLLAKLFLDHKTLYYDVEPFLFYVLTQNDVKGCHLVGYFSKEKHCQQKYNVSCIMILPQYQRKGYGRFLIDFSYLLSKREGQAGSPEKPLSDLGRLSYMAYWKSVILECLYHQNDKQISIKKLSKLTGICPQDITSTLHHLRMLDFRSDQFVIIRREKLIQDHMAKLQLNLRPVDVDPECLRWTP

[5] = target: T1, QKF-KAT6B (Homo sapiens, UniProt Q8WYB5); assay: Acetyltransferase biochemical assay (AlphaScreen), KAT6B; conditions: 8 nM KAT6B, 1 μM AcCoA, 100 nM histone H3.1
T1 construct: purchased SignalChem K315-381BG
T1 sequence (Q8WYB5 whole entry): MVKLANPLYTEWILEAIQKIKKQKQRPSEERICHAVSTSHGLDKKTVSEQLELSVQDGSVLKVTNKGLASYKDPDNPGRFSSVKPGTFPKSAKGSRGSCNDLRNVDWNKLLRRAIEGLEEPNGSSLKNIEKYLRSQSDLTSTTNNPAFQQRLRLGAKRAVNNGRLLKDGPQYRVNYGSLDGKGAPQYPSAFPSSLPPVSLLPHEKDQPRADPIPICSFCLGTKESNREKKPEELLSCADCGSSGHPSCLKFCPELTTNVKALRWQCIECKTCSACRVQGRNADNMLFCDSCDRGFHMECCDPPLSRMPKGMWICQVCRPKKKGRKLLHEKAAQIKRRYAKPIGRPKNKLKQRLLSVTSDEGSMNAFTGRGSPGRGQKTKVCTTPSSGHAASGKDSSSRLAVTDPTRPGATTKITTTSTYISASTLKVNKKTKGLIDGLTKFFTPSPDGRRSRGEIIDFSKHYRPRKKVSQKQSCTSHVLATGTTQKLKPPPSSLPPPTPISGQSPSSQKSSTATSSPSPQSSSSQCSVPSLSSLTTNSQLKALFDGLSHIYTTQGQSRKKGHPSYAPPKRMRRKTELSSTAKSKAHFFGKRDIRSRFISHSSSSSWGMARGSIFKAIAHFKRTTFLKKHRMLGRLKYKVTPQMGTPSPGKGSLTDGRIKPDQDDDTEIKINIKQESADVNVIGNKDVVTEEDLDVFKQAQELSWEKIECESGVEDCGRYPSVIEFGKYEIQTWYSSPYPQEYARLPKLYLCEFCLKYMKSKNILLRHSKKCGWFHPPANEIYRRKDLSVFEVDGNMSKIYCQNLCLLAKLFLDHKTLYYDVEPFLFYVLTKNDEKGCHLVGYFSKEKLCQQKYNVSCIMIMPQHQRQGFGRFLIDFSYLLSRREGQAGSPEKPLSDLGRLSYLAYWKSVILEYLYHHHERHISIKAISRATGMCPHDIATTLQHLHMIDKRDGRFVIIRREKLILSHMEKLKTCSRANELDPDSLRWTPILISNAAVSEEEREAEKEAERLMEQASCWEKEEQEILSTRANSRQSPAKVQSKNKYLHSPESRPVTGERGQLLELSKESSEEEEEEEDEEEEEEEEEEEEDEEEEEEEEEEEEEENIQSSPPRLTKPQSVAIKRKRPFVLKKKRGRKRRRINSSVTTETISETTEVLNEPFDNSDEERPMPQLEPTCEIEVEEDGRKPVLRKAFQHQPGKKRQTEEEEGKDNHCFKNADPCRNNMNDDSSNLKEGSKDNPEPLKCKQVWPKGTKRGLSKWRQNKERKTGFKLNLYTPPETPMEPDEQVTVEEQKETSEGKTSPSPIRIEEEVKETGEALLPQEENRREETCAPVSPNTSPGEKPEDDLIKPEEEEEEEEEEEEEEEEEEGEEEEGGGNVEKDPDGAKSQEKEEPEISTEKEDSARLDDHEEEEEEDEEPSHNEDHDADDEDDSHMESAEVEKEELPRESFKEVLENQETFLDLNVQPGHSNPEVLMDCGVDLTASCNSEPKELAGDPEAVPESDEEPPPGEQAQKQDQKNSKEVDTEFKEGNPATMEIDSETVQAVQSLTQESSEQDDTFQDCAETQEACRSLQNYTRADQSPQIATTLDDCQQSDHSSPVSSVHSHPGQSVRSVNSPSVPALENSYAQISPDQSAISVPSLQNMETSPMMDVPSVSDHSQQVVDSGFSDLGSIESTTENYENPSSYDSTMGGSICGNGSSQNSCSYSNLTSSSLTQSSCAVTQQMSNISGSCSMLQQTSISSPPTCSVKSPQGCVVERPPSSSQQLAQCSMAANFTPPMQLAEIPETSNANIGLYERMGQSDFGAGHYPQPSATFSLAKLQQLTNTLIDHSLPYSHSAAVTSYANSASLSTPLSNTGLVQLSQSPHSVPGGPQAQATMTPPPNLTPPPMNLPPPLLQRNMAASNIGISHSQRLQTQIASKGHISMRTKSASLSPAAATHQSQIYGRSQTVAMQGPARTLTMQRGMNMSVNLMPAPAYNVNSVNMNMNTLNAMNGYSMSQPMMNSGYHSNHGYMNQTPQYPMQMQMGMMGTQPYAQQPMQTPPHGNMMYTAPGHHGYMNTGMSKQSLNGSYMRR
Description: KAT6B was obtained from SignalChem, catalog ID: K315-381BG

[6] = system: acetylation of the histone H3 Lysine 14 marker in U2OS cells; assay: Histone H3 Lysine 14 Acetylation Biomarker Assay; format: cell-based; conditions: Homo sapiens, serum free medium, 24 hours incubation, read-out: IC50, inhibition of histone H3 Lysine 14 acetylation
Protocol: Compounds were tested for their ability to inhibit acetylation of the histone H3 Lysine 14 marker in the following assay:
The cell line U2OS was seeded at a density of 3,000 cells per well in 384-well optical quality tissue culture plates in RPMI medium supplemented with 10% foetal bovine serum and 10 mM Hepes. The cells were allowed to adhere for 24 hours under standard culture conditions (37 degree Celsius, 5% CO2). At the end of this period the cells were washed with serum free medium. […] After incubation for 24 hours, the cells were fixed with 4% formaldehyde in PBS for 15 minutes at room temperature, washed with phosphate buffer saline and blocked with blocking buffer containing 0.2% TritonX100 and 2% BSA. Anti-H3K14ac specific antibody (Cell Signalling Technologies) in blocking buffer was added and incubated overnight at 4 degree Celsius. After washing, a secondary antibody labelled with AlexaFluor 488 dye (ThermoFisher) and Hoechst 33342 (1 μg/mL, Life Technologies) were added for 2 hours incubation at room temperature. Plates were washed and read on a PerkinElmer Opera HCS high content imaging platform. Using a Columbus image analysis pipeline, individual nuclei were located by Hoechst 33342 stain and the acetylation level was calculated from the AlexaFluor 488-related intensity in the same area.

[7] = system: histone H2A.Z Lysine 7 acetylation marker in U2OS cells; assay: H2A.Z Lysine 7 Acetylation Biomarker Assay; format: cell-based; conditions: Homo sapiens, serum free medium, 24 hours incubation, read-out: IC50, inhibition of histone H2A.Z Lysine 7 acetylation
Protocol: Compounds were tested for their ability to inhibit the histone H2A.Z Lysine 7 acetylation marker in the following assay:
The cell line U2OS was seeded at a density of 3,000 cells per well in 384-well optical quality tissue culture plates in RPMI medium supplemented with 10% foetal bovine serum and 10 mM Hepes. The cells were allowed to adhere for 24 hours under standard culture conditions (37 degree Celsius, 5% CO2). At the end of this period the cells were washed with serum free medium. […] 2018, at 30 μM concentration. After incubation for 24 hours, the cells were fixed with 4% formaldehyde in PBS for 15 minutes at room temperature, washed with phosphate buffer saline and blocked with blocking buffer containing 0.2% TritonX100 and 2% BSA. Anti-H2A.ZK7ac specific antibody (Abcam) in blocking buffer was added and incubated overnight at 4 degree Celsius. After washing, a secondary antibody labelled with AlexaFluor 488 dye (ThermoFisher) and Hoechst 33342 (1 μg/mL, Life Technologies) were added for 2 hours incubation at room temperature. Plates were washed and read on a PerkinElmer Opera HCS high content imaging platform. Using a Columbus image analysis pipeline, individual nuclei were located by Hoechst 33342 stain and the acetylation level was calculated from the AlexaFluor 488-related intensity in the same area.

[8] = target: T2, MOF-KAT8 (Homo sapiens, UniProt Q9H7Z6); assay: biochemical
T2 sequence (Q9H7Z6 with tags, fused parts or gaps): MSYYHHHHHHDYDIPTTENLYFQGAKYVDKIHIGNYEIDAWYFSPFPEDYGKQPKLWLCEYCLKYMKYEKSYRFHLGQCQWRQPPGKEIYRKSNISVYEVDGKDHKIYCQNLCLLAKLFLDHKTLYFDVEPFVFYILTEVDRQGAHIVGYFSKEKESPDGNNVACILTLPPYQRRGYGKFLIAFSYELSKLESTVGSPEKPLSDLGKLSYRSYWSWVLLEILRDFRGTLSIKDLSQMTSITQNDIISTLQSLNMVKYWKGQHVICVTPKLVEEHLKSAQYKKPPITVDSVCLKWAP

IC50 [1] [µM] | IC50 [2] [µM] | IC50 [3] [µM] | IC50 [4] [µM] | IC50 [5] [µM] | IC50 [6] [µM] | IC50 [7] [µM] | Structure (SMILES) | IC50 [8] [µM]
1.58 | 97.6 | 1.98 | 5.89 |  |  |  | COc1cccc(OC)c1S(=O)(=O)Nc1noc2cccc(OC)c12 [Example 86, 2,6-dimethoxy-N-(4-methoxybenzo[d]isoxazol-3-yl)benzene sulfonamide] | 
0.013 | 1.39 | 0.06 | 0.006 | 0.053 | 0.703 | 4.62 | COc1cccc(OC)c1S(=O)(=O)Nc1noc2cc(-c3cccc(O)c3)cc(OC)c12 [Example 92] | 
3.46 | 10.5 | 1.44 | 0.56 | 1.62 |  |  | CCc1ccc(OC)c(S(=O)(=O)Nc2noc3cccc(OC)c23)c1 [Example 116, 5-Ethyl-2-methoxy-N-(4-methoxybenzo[d]isoxazol-3-yl)benzenesulfonamide] | 
 | > 125 | 7.88 | 32.4 | 50.7 |  |  | COc1cccc(OC)c1S(=O)(=O)Nc1noc2c(-c3cnn(C)c3)ccc(OC)c12 [Example 143, 2,6-Dimethoxy-N-(4-methoxy-7-(1-methyl-1H-pyrazol-4-yl)benzo[d]isoxazol-3-yl)benzenesulfonamide] | 
0.128 | 11.5 | 0.286 | 0.261 | 0.057 | 2.95 | 18.8 | COc1cccc(OC)c1S(=O)(=O)Nc1noc2cc(-c3ncco3)cc(OC)c12 [Example 144, 2,6-Dimethoxy-N-(4-methoxy-6-(oxazol-2-yl)benzo[d]isoxazol-3-yl)benzenesulfonamide] | 
0.098 | 21 | 0.259 | 0.127 |  | 3.38 | > 40 | COCc1cc2onc(NS(=O)(=O)c3c(OC)cccc3OC)c2c(OC)c1Cl [Example 145] | 
0.045 | 22 | 0.511 | 0.153 | 0.291 | 2.3 | 15.1 | COc1cccc(OC)c1S(=O)(=O)Nc1noc2cc(-c3ccccn3)cc(OC)c12 [Example 146, 2,6-Dimethoxy-N-(4-methoxy-6-(pyridin-2-yl)benzo[d]isoxazol-3-yl)benzenesulfonamide] | 
0.672 | 27.3 | 1.78 | 3.23 |  |  |  | COc1cccc(OC)c1S(=O)(=O)Nc1noc2cc(OC(F)F)cc(OC)c12 [Example 242] | 
3.71 | 12.2 | 0.05 | 0.423 |  | 3.48 | 13.2 | COc1cncc(-c2cc(OC)c3c(NS(=O)(=O)c4c(OC)cccc4OC)noc3c2)c1 [Example 250, 2,6-Dimethoxy-N-(4-methoxy-6-(5-methoxypyridin-3-yl)benzo[d]isoxazol-3-yl)benzenesulfonamide] | 

Second part, the compound before the results:

Structure (SMILES) | IC50 [1] [µM] | IC50 [2] [µM] | IC50 [3] [µM] | IC50 [4] [µM] | IC50 [5] [µM] | IC50 [6] [µM] | IC50 [7] [µM] | IC50 [8] [µM]
COCc1cc(OC)c2c(NS(=O)(=O)c3c(OC)cc(-c4ccccc4)cc3OC)noc2c1 [Example 91, 3,5-Dimethoxy-N-(4-methoxy-6-(methoxymethyl)benzo [d]isoxazol-3-yl)-[1,1-biphenyl]-4-sulfonamide] | 0.182 | 2.18 | 0.079 | 0.009 | 0.037 | 0.874 | 8.02 | 
COc1ccc(-c2ccccc2)c(OC)c1S(=O)(=O)Nc1noc2cccc(OC)c12 [Example 96, 2,4-Dimethoxy-N-(4-methoxybenzo[d]isoxazol-3-yl)-[1,1-biphenyl]-3-sulfonamide] | > 10 | 28.6 | 4.27 | 1.2 | 3.39 |  |  | 53.8
COCc1cc2onc(NS(=O)(=O)c3c(OC)cccc3OC)c2cc1C [Example 97, 2,6-Dimethoxy-N-(6-(methoxymethyl)-5-methylbenzo[d]isoxazol-3-yl)benzenesulfonamide] | 0.045 | 6.18 | 0.444 | 0.061 | 0.049 | 1.09 | 28 | 
COc1cccc(OC)c1S(=O)(=O)Nc1noc2cc(-c3ncco3)c(C)cc12 [Example 102, 2,6-Dimethoxy-N-(5-methyl-6-(oxazol-2-yl)benzo[d]isoxazol-3-yl)benzenesulfonamide] |  | 9.33 | 0.568 | 0.143 | 0.282 | 3.69 | > 40 | 11.5
COc1ccccc1S(=O)(=O)Nc1noc2cccc(Cl)c12 [Example 155] | > 10 | 0.672 | 0.248 | 2.12 |  | 26.1 | > 40 | 
COCc1cc(OC)c2c(NS(=O)(=O)c3c(OC)ccc(Cl)c3OC)noc2c1 [Example 175, 3-Chloro-2,6-dimethoxy-N-(4-methoxy-6-(methoxymethyl)benzo[d]isoxazol-3-yl)benzenesulfonamide] |  | 43.2 | 5.95 | 0.441 | 0.821 |  |  | 
CCc1ccc(OC)c(S(=O)(=O)Nc2noc3c(-c4cnn(C)c4)cccc23)c1 [Example 191, 5-Ethyl-2-methoxy-N-(7-(1-methyl-1H-pyrazol-4-yl)benzo[d]isoxazol-3-yl)benzenesulfonamide] | > 10 | 68.7 | 1.58 | 12.6 |  | 17.8 | > 40 | 
CCc1ccc(OC)c(S(=O)(=O)Nc2noc3ccc(C4CC4)c(Cl)c23)c1 [Example 207] |  | 4.61 | 0.257 | 0.104 | 1.45 |  |  | 
CCc1ccc(OC)c(S(=O)(=O)Nc2noc3ccc(C4CC4)cc23)c1 [Example 236] |  | 10.1 | 1.07 | 0.318 |  | > 40 | > 40 | 3.68
COc1cccc(OC)c1S(=O)(=O)Nc1noc2c(-c3ccccc3)cc(C)cc12 [Example 252, 2,6-Dimethoxy-N-(5-methyl-7-phenylbenzo[d]isoxazol-3-yl)benzenesulfonamide] |  | 102 | 1.3 | 4.16 |  | 24.7 | > 40 | 

— patent US12365655B2, “Compounds” (CTXT PTY LTD, priority 2018, dated 2025)
